This data set concerns plaque type psoriasis vulgaris. Kind of data set: Simple-blind, own-control topical gel treatment of five psoriasis patients (Example 1). In kind it is in vivo, human. The source says:
The gel used was of the following composition:
Patients for the treatment of psoriasis (five patients) were chosen as having a relatively secure diagnosis of plaque type psoriasis vulgaris with silvery scales covering the surface of the lesion. This disease tends to be chronic, and often difficult to treat with topical agents. All of the five patients treated were diagnosed by a dermatologist and had the diagnosis for over three years. None of these patients had arthritis.
After a treatment, which may vary from two weeks to one month, there was a considerable improvement both scaling, size, thickness and erythematous appearance of the lesions. The lesions in these patients were all symmetric and each patient was treated with the formulation of the present invention without the active compound on one side and with the active compound on the other. Each patient was treated as their own control (simple blind).
Two patients were treated with galantamine and three patients with donepezil.

Structures can show the parent of a compound that is named as a salt.

Regarding `COc1cc2c(cc1OC)C(=O)C(CC1CCN(Cc3ccccc3)CC1)C2` (centres unmarked) [donepezil, donepezil hydrochloride], the adverse effect result (human, in vivo) is listed as “no adverse effect was noticed”.

With `COc1ccc2c3c1O[C@H]1C[C@@H](O)C=C[C@@]31CCN(C)C2` [galantamine, galantamine hydrobromide], the adverse effect result (gel containing 0.1% active compound, two days twice daily) was “no adverse effect was noticed”.
